# Laboratory results taken from US20040209850A1, “Methods of treating pain and compositions for use therefor” (TheraQuest Biosciences, LLC, priority 2003, published 2004).
# Experiments:
# mouse = experiment: Chemically-induced (acetic acid) abdominal constrictions in the mouse; format: in vivo; details: mean ± S.E.M.
# Description: Albuterol or vehicle 1 was dosed intraperitoneally (−25 min), followed by a subcutaneous dose of indomethacin or vehicle 2 (−20 min), prior to acetic acid (0.7% v/v) administration (0 min).
# rat = experiment: Tail-flick test: antinociception of albuterol, morphine and morphine plus albuterol (% MPE, A50); format: in vivo
# Text: The tail flick test was first described by D'Amour and Smith (1941), and remains essentially unchanged in application. (See generally D'Amour, F. E. and Smith, D. L., “A method for determining loss of pain sensation”, J. Pharmacol. Exp. Therap., 72:74-79(1941); Dewey, D. L. and Harris, L. S., The Tail-flick test. In: S. Ehrenpreis and A. Neidle (Eds.), Methods in Narcotic Research, Marcel Dekker, Inc., New York, 1975, pp. 101-109; and Dubner, R. and Ren, K., “Assessing transient and persistent pain in animals.” In: P. D. Wall and R. Melzack (Eds.), Textbook of Pain, Churchill Livingstone, London, 1999, pp. 359-369). Quite simply, the tail of a rat or mouse is exposed to radiant heat, and the latency to withdraw is determined. The basal heat intensity is set so that naive rats withdraw their tails within 2 to 3 sec. A cut-off latency of 10 sec (i.e., 3 to 4 times basal control value) is commonly employed to prevent tissue damage. An alternative to using radiant heat is to dip the tail into a water bath maintained at a fixed temperature, usually in the moderately noxious range of about 52° C. or 55° C. One advantage of a water bath is that the temperature is kept constant.
# The tail-flick test is considered to be very robust in that weak analgesic agents are not detected by this test. […] It is even possible to perform the tail-flick test in lightly anesthetized animals.
# Data obtained from the rat tail-flick test conform to a graded dose-response curve. The raw tail withdrawal latencies are converted to a % MPE (% maximal possible effect) by the formula:
# % MPE=100×(test latency−basal latency)/(cut-off−basal latency).
# This formula constrains the data to fit between 0% MPE and 100% MPE. […] These calculations then allow for the determination of relative potencies of different drugs and allow for the isobolographic determination of possible synergistic effects. Instances where the test latency is less than the basal latency produces a negative % MPE, which is meaningless unless one is measuring hyperalgesia.
# Absent any interaction, the dose-effect curves for morphine alone and in the presence of albuterol should be identical.
# This manipulation allowed the construction of dose-effect curves and more importantly, the calculation of the A50 (dose required to produce a 50% effect) and the confidence intervals. The data were converted to % MPE based on the equation:
# % MPE=(response−baseline)/(8.2−baseline)×100.
# Baseline refers to the pre-treatment tail-flick latencies, and 8.2 represents the maximal effect. […] The A50 values and confidence intervals for each of the dose-effect curves were determined from linear regression analysis of the logdose-effect curves. Significant shifts in the dose-effect curves were indicated by Student's t-statistic applied to the A50 values obtained for morphine and morphine plus albuterol, and was performed with our custom-designed data analysis software.
# The SEM values are approximate and are derived as a ratio of the SEM of the raw data to the respective mean and adjusted as a function of % MPE.
smiles,measurement,setting,value
COc1ccc2c(c1)c(CC(=O)O)c(C)n2C(=O)c1ccc(Cl)cc1 [Indomethacin],Number of Abdominal Constrictions Exhibited in Time Period (min) Post Acetic Acid,"mouse; indomethacin 0.1 mg/kg s.c., 5-10 min",14.3 ± 2.6
same,Number of Abdominal Constrictions Exhibited in Time Period (min) Post Acetic Acid,"mouse; indomethacin 0.1 mg/kg s.c., 5-15 min",23.6 ± 3.7
same,Number of Abdominal Constrictions Exhibited in Time Period (min) Post Acetic Acid,"mouse; indomethacin 1 mg/kg s.c., 5-10 min",7.5 ± 2.0
same,Number of Abdominal Constrictions Exhibited in Time Period (min) Post Acetic Acid,"mouse; indomethacin 1 mg/kg s.c., 5-15 min",14.5 ± 2.9
same,Number of Abdominal Constrictions Exhibited in Time Period (min) Post Acetic Acid,"mouse; indomethacin 3 mg/kg s.c., 5-10 min",6.8 ± 1.7
same,Number of Abdominal Constrictions Exhibited in Time Period (min) Post Acetic Acid,"mouse; indomethacin 3 mg/kg s.c., 5-15 min",12.2 ± 3.1
same,Number of Abdominal Constrictions Exhibited in Time Period (min) Post Acetic Acid,"mouse; indomethacin 5 mg/kg s.c., 5-10 min",8.3 ± 2.0
same,Number of Abdominal Constrictions Exhibited in Time Period (min) Post Acetic Acid,"mouse; indomethacin 5 mg/kg s.c., 5-15 min",14.1 ± 3.4
same,Number of Abdominal Constrictions Exhibited in Time Period (min) Post Acetic Acid,"mouse; indomethacin 10 mg/kg s.c., 5-10 min",6.8 ± 1.7
same,Number of Abdominal Constrictions Exhibited in Time Period (min) Post Acetic Acid,"mouse; indomethacin 10 mg/kg s.c., 5-15 min",11.9 ± 2.9
same,Number of Abdominal Constrictions Exhibited in Time Period (min) Post Acetic Acid,"mouse; indomethacin 30 mg/kg s.c., 5-10 min",10.5 ± 2.3
same,Number of Abdominal Constrictions Exhibited in Time Period (min) Post Acetic Acid,"mouse; indomethacin 30 mg/kg s.c., 5-15 min",17.6 ± 3.2
same,Number of Abdominal Constrictions Exhibited in Time Period (min) Post Acetic Acid,"mouse; indomethacin 50 mg/kg s.c., 5-10 min",1.4 ± 0.6
same,Number of Abdominal Constrictions Exhibited in Time Period (min) Post Acetic Acid,"mouse; indomethacin 50 mg/kg s.c., 5-15 min",4.5 ± 1.3
CN1CC[C@]23c4c5ccc(O)c4O[C@H]2[C@@H](O)C=C[C@H]3[C@H]1C5 [Morphine],"A50 (95% confidence interval), dose required to produce a 50% effect",rat; 30 minutes after injection,4.53 mg/kg
same,"A50 (95% confidence interval), dose required to produce a 50% effect","rat; 30 minutes after injection, listed as Morphine alone",4.53 (3.92 to 5.24) mg/kg
same,"A50 (95% confidence interval), dose required to produce a 50% effect",rat; 60 minutes after injection,9.94 mg/kg
same,"A50 (95% confidence interval), dose required to produce a 50% effect","rat; 60 minutes after injection, listed as Morphine alone",9.94 (9.84 to 10.04) mg/kg
same,dose-dependency of antinociception (FIG. 1),rat; dose-effect curves as % MPE,demonstrated dose-dependent antinociception
same,antinociceptive effect (in words),rat; morphine 0.3 mg/kg to 2.5 mg/kg,minimal effects
same,Antinociceptive effect (as % MPE),"rat; morphine alone 0.3125 mg/kg, 30 minutes",25.86 ± 3.31 % MPE
same,Antinociceptive effect (as % MPE),"rat; morphine alone 0.3125 mg/kg, 60 minutes",24.14 ± 1.27 % MPE
same,Antinociceptive effect (as % MPE),"rat; morphine alone 0.625 mg/kg, 30 minutes",22.41 ± 1.82 % MPE
same,Antinociceptive effect (as % MPE),"rat; morphine alone 0.625 mg/kg, 60 minutes",20.69 ± 1.72 % MPE
same,Antinociceptive effect (as % MPE),"rat; morphine alone 1.25 mg/kg, 30 minutes",33.33 ± 2.27 % MPE
same,Antinociceptive effect (as % MPE),"rat; morphine alone 1.25 mg/kg, 60 minutes",19.3 ± 2.14 % MPE
same,Antinociceptive effect (as % MPE),"rat; morphine alone 2.5 mg/kg, 30 minutes",28.57 ± 2.04 % MPE
same,Antinociceptive effect (as % MPE),"rat; morphine alone 2.5 mg/kg, 60 minutes",21.43 ± 1.69 % MPE
same,Antinociceptive effect (as % MPE),"rat; morphine alone 5 mg/kg, 30 minutes",44.07 ± 3.6 % MPE
same,Antinociceptive effect (as % MPE),"rat; morphine alone 5 mg/kg, 60 minutes",13.56 ± 2.19 % MPE
same,Antinociceptive effect (as % MPE),"rat; morphine alone 10 mg/kg, 30 minutes",91.07 ± 14.19 % MPE
same,Antinociceptive effect (as % MPE),"rat; morphine alone 10 mg/kg, 60 minutes",50 ± 9.26 % MPE
